From PubChem BioAssay (NCI)
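Step 1: Grow cells in 96-well plates. Step 2: Expose to compound for 48 hours at 5 concentrations. Step 3: Interpolate endpoints linearly; if unreached, use highest concentration. The concentration for 50% growth inhibition is given as GI50. Definition used: TGI = concentration required for complete inhibition of growth.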

Experiments:
Test in all cases: NCI tumour cell line growth inhibition, 48 h
[1] = test system: DU-145 prostate
[2] = test system: SR leukemia
[3] = test system: CCRF-CEM leukemia
[4] = test system: HT29 colon
[5] = test system: SF-268 CNS
[6] = test system: NCI/ADR-RES ovarian
[7] = test system: RPMI-8226 leukemia
[8] = test system: A549 NSCLC
[9] = test system: ACHN renal
[10] = test system: LOX IMVI melanoma
[11] = test system: HCT-116 colon
[12] = test system: NCI-H460 lung
[13] = test system: SW-620 colon
[14] = test system: SNB-19 CNS
[15] = test system: IGROV1 ovarian
[16] = test system: HS 578T breast
[17] = test system: PC-3 prostate
[18] = test system: KM12 colon
[19] = test system: MDA-MB-435
[20] = test system: NCI-H226 lung
[21] = test system: HOP-92 NSCLC
[22] = test system: CAKI-1 renal
[23] = test system: SF-539 CNS
[24] = test system: NCI-H522 lung
[25] = test system: A498 renal
[26] = test system: RXF 393 renal
[27] = test system: HCT-15 colon
[28] = test system: COLO 205 colon
[29] = test system: T-47D breast
[30] = test system: SF-295 CNS
[31] = test system: 786-0 renal
[32] = test system: SK-MEL-28 melanoma
[33] = test system: BT-549 breast
[34] = test system: UACC-257 melanoma
[35] = test system: MCF7 breast
[36] = test system: NCI-H23 lung
[37] = test system: UO-31 renal
[38] = test system: OVCAR-8 ovarian
[39] = test system: EKVX NSCLC
[40] = test system: MALME-3M melanoma
[41] = test system: OVCAR-4 ovarian
[42] = test system: K-562 leukemia
[43] = test system: HOP-62 NSCLC
[44] = test system: U251 CNS
[45] = test system: OVCAR-5 ovarian
[46] = test system: SN12C renal
[47] = test system: HL-60(TB) leukemia
[48] = test system: HCC-2998 colon
[49] = test system: UACC-62 melanoma
[50] = test system: M14 melanoma
[51] = test system: MDA-MB-231 breast
[52] = test system: TK-10 renal
[53] = test system: SK-OV-3 ovarian
[54] = test system: SK-MEL-5 melanoma
[55] = test system: OVCAR-3 ovarian
[56] = test system: SNB-75 CNS
[57] = test system: SK-MEL-2 melanoma
[58] = test system: MOLT-4 leukemia

SMILES: C=C1C(=O)O[C@H]2[C@H]1CC/C(COC(=O)NCc1cccc(OC)c1)=C\CC[C@@]1(C)O[C@@H]21
- GI50 [1]: 1.58 µM
- TGI [1]: 3.04 µM
- GI50 [2]: 1.3 µM
- TGI [2]: 12 µM
- GI50 [3]: 1.14 µM
- TGI [3]: 4.76 µM
- GI50 [4]: 1.79 µM
- TGI [4]: 3.87 µM
- GI50 [5]: 3.21 µM
- TGI [5]: 12.1 µM
- GI50 [6]: 3.07 µM
- TGI [6]: 12.3 µM
- GI50 [7]: 1.98 µM
- TGI [7]: 6.4 µM
- GI50 [8]: 3.1 µM
- TGI [8]: 12.8 µM
- GI50 [9]: 1.17 µM
- TGI [9]: 2.41 µM
- GI50 [10]: 1.51 µM
- TGI [10]: 3.01 µM
- GI50 [11]: 1.27 µM
- TGI [11]: 2.76 µM
- GI50 [12]: 3.3 µM
- TGI [12]: 13.4 µM
- GI50 [13]: 1.52 µM
- TGI [13]: 3.28 µM
- GI50 [14]: 6.42 µM
- TGI [14]: 20 µM
- GI50 [15]: 2.76 µM
- TGI [15]: 8.4 µM
- GI50 [16]: 13 µM
- TGI [16]: 37.8 µM
- GI50 [17]: 2.26 µM
- TGI [17]: 6.07 µM
- GI50 [18]: 9.98 µM
- TGI [18]: 25.3 µM
- GI50 [19]: 1.5 µM
- TGI [19]: 3.22 µM
- GI50 [20]: 12.1 µM
- TGI [20]: 27.8 µM
- GI50 [21]: 1.32 µM
- TGI [21]: 2.96 µM
- GI50 [22]: 1.62 µM
- TGI [22]: 3.62 µM
- GI50 [23]: 1.55 µM
- TGI [23]: 2.98 µM
- GI50 [24]: 1.22 µM
- TGI [24]: 2.8 µM
- GI50 [25]: 10.5 µM
- TGI [25]: 22.4 µM
- GI50 [26]: 1.38 µM
- TGI [26]: 2.84 µM
- GI50 [27]: 1.38 µM
- TGI [27]: 2.82 µM
- GI50 [28]: 1.68 µM
- TGI [28]: 3.41 µM
- GI50 [29]: 2.31 µM
- TGI [29]: 6.38 µM
- GI50 [30]: 9.76 µM
- TGI [30]: 21.7 µM
- GI50 [31]: 1.84 µM
- TGI [31]: 3.61 µM
- GI50 [32]: 1.84 µM
- TGI [32]: 3.82 µM
- GI50 [33]: 1.51 µM
- TGI [33]: 3.21 µM
- GI50 [34]: 1.96 µM
- TGI [34]: 5.79 µM
- GI50 [35]: 2.36 µM
- TGI [35]: 8.97 µM
- GI50 [36]: 3.07 µM
- TGI [36]: 10.3 µM
- GI50 [37]: 1.58 µM
- TGI [37]: 2.94 µM
- GI50 [38]: 2.03 µM
- TGI [38]: 5.63 µM
- GI50 [39]: 2 µM
- TGI [39]: 5.81 µM
- GI50 [40]: 1.74 µM
- TGI [40]: 3.53 µM
- GI50 [41]: 2.61 µM
- TGI [41]: 11.1 µM
- GI50 [42]: 1.93 µM
- TGI [42]: 6.79 µM
- GI50 [43]: 13.2 µM
- TGI [43]: 28.3 µM
- GI50 [44]: 3.65 µM
- TGI [44]: 14.9 µM
- GI50 [45]: 2.17 µM
- TGI [45]: 5.04 µM
- GI50 [46]: 1.77 µM
- TGI [46]: 4.4 µM
- GI50 [47]: 1.21 µM
- TGI [47]: 4.51 µM
- GI50 [48]: 15.3 µM
- TGI [48]: 31.1 µM
- GI50 [49]: 1.91 µM
- TGI [49]: 4.24 µM
- GI50 [50]: 2.08 µM
- TGI [50]: 5.16 µM
- GI50 [51]: 1.95 µM
- TGI [51]: 4.22 µM
- GI50 [52]: 1.85 µM
- TGI [52]: 3.87 µM
- GI50 [53]: 14.9 µM
- TGI [53]: 28.2 µM
- GI50 [54]: 1.64 µM
- TGI [54]: 3.2 µM
- GI50 [55]: 1.6 µM
- TGI [55]: 3.29 µM
- GI50 [56]: 12.2 µM
- TGI [56]: 24.7 µM
- GI50 [57]: 11.4 µM
- TGI [57]: 25 µM
- GI50 [58]: 2.38 µM
- TGI [58]: 7.19 µM
